Some test systems named below: OVCAR-4; UACC-257; SK-MEL-2; U-251; IGROV-1; OVCAR-3; HCC 2998; HOP-62; MDA-MB-231; NCI-H226; RXF 393; NCI-H460; SF-539; HCT-116; CCRF-CEM; HT-29; SW-620; MOLT-4; UO-31; M14.
Common to all, as to assay: NCI tumour cell line growth inhibition, 48 h

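In this assay, cells in 96-well plates receive the compound at five concentrations for 48 hours. Endpoints are linearly interpolated between the surrounding concentrations. GI50: concentration for 50% inhibition of growth.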 Calls of active or inactive are those of the source. Cut-off read from the data, not from the text of the source: active = GI50 up to about 1.1 µM and inactive = higher. Some results are limits rather than exact numbers.

On to `O=C(NC(=O)c1cc(-c2ccccc2)n[nH]1)c1ccccc1`, for which the GI50 with OVCAR-4, in the test with UACC-257, in the test with SK-MEL-2, in the test on U-251, in the test on IGROV-1 and with OVCAR-3 was > 100 µM (inactive) each time. The GI50 in the test with HCC 2998 was > 100 µM (inactive); in the test with HOP-62, 64.9 µM (inactive); with MDA-MB-231, > 100 µM (inactive); in the test with NCI-H226, > 100 µM (inactive); in the test with RXF 393, > 100 µM (inactive); in the test on NCI-H460, > 100 µM (inactive). Moreover, the GI50 in the test on SF-539, in the test on HCT-116, in the test with CCRF-CEM, in the test with HT-29, in the test on SW-620 and with MOLT-4 was > 100 µM (inactive) in each case. Also, the GI50 in the test on UO-31 and in the test with M14 was > 100 µM (inactive) each time.

`CCCn1c2c(c3ccccc3c1=O)C(=O)c1ccccc1-2`: the GI50 with OVCAR-4 was > 100 µM (inactive); with UACC-257 it was > 100 µM (inactive); in the test with SK-MEL-2, > 100 µM (inactive); in the test on U-251, > 61.8 µM (inactive); in the test with IGROV-1 it was > 57.7 µM (inactive); in the test on OVCAR-3 it was > 100 µM (inactive). Moreover, the GI50 in the test on HCC 2998 was > 100 µM (inactive); with HOP-62, 14.1 µM (inactive); in the test with MDA-MB-231, > 40.4 µM (inactive); in the test on NCI-H226 it was > 46.5 µM (inactive); with RXF 393, 82.4 µM (inactive); in the test on NCI-H460, 7.23 µM (inactive). The GI50 was > 55.2 µM (inactive) in the test on SF-539; 25.2 µM (inactive) in the test with HCT-116; > 56.2 µM (inactive) in the test on CCRF-CEM; > 29.8 µM (inactive) with HT-29; > 53.5 µM (inactive) in the test on SW-620; 3.61 µM (inactive) with MOLT-4. Also, the GI50 was > 19.7 µM (inactive) in the test on UO-31 and 68.1 µM (inactive) in the test with M14.

For `O=C(O)c1nn(-c2ccccc2-c2nnc(O)nc2O)c(=O)[nH]c1=O`, the GI50 in the test on OVCAR-4, in the test with UACC-257, in the test on SK-MEL-2, with U-251, with IGROV-1 and with OVCAR-3 was > 100 µM (inactive) throughout. For the same compound, the GI50 in the test on HCC 2998, with HOP-62, in the test on MDA-MB-231, with NCI-H226, in the test on RXF 393 and in the test with NCI-H460 was > 100 µM (inactive) in each case. Moreover, the GI50 was > 100 µM (inactive) with SF-539; > 100 µM (inactive) with HCT-116; 51.8 µM (inactive) in the test with CCRF-CEM; > 100 µM (inactive) in the test with HT-29; > 100 µM (inactive) with SW-620; 4.73 µM (inactive) with MOLT-4. Further, the GI50 in the test on UO-31 and in the test on M14 was > 100 µM (inactive) each time.

Consider `CC(C)(C)[Si](C)(C)OCCc1ccccc1C1CC2(S(=O)(=O)c3ccccc3)ON1CC2S(=O)(=O)c1ccccc1` (stereo unspecified), for which the GI50 in the test on OVCAR-4, in the test with UACC-257, in the test with SK-MEL-2, in the test with U-251, in the test on IGROV-1 and with OVCAR-3 was > 100 µM (inactive) in each case. Moreover, the GI50 in the test on HCC 2998, in the test on HOP-62, in the test with MDA-MB-231, in the test on NCI-H226, in the test with RXF 393 and in the test with NCI-H460 was > 100 µM (inactive) in each case. Besides, the GI50 in the test with SF-539, in the test with HCT-116, in the test on CCRF-CEM, with HT-29, with SW-620 and in the test on MOLT-4 was > 100 µM (inactive) throughout. Besides, the GI50 in the test with UO-31 and with M14 was > 100 µM (inactive) each time.

On to `Nc1nc(Sc2ccc([N+](=O)[O-])c3nonc23)c2nc[nH]c2n1`, for which the GI50 in the test with OVCAR-4 was 1.14 µM (inactive); in the test with UACC-257, 2.13 µM (inactive); with SK-MEL-2, 1.06 µM (active); in the test with U-251 it was 5.86 µM (inactive); with IGROV-1, 3.57 µM (inactive); in the test on OVCAR-3, 0.624 µM (active). For the same compound, the GI50 with HCC 2998 was 1.08 µM (active); with HOP-62, 0.561 µM (active); with MDA-MB-231, 0.731 µM (active); in the test with NCI-H226 it was 1.75 µM (inactive); in the test with RXF 393, 1.36 µM (inactive); in the test with NCI-H460 it was 0.627 µM (active). Also, the GI50 was 1.53 µM (inactive) in the test with SF-539; 0.622 µM (active) in the test with HCT-116; 0.191 µM (active) with CCRF-CEM; 1.59 µM (inactive) in the test with HT-29; 1.01 µM (active) with SW-620; 0.301 µM (active) in the test on MOLT-4. The GI50 in the test on UO-31 was 0.716 µM (active); with M14 it was 0.363 µM (active).

Consider `OC(c1cc(-c2ccccc2)nc2c1ccc1ccccc12)C1CCCCN1` (stereo unspecified), for which the GI50 in the test on OVCAR-4 was 1.96 µM (inactive); in the test with UACC-257, 1.82 µM (inactive); in the test with SK-MEL-2, 1.79 µM (inactive); with U-251, 1.76 µM (inactive); in the test with IGROV-1, 1.68 µM (inactive); with OVCAR-3 it was 1.84 µM (inactive). The GI50 in the test with HCC 2998 was 0.59 µM (active); with HOP-62, 1.67 µM (inactive); in the test with MDA-MB-231, 1.79 µM (inactive); in the test on NCI-H226 it was 2.95 µM (inactive); in the test on RXF 393, 1.81 µM (inactive); in the test on NCI-H460, 1.79 µM (inactive). The GI50 is 1.92 µM (inactive) in the test with SF-539; 1.63 µM (inactive) in the test on HCT-116; 0.0473 µM (active) with CCRF-CEM; 1.68 µM (inactive) with HT-29; 1.78 µM (inactive) in the test on SW-620; 2.18 µM (inactive) with MOLT-4. The figures for the GI50 in the test with UO-31 and in the test on M14 were 1.02 µM (active) and 1.73 µM (inactive), respectively.

In the case of `Cc1ccc(S(=O)(=O)n2c3c(c4ccccc42)CCN2CCC(Br)C[C@@H]32)cc1` (stereo partly specified), the GI50 in the test with OVCAR-4 was 13.1 µM (inactive); in the test with UACC-257 it was 7.23 µM (inactive); in the test on SK-MEL-2, 16.3 µM (inactive); in the test with U-251, 12.4 µM (inactive); with IGROV-1 it was 10.1 µM (inactive); with OVCAR-3, 11.1 µM (inactive). Moreover, the GI50 in the test on HCC 2998 was 15 µM (inactive); with HOP-62, 15 µM (inactive); in the test with MDA-MB-231, 16.5 µM (inactive); in the test with NCI-H226 it was 13.4 µM (inactive); with RXF 393, 12.9 µM (inactive); in the test on NCI-H460, 14.9 µM (inactive). Besides, the GI50 was 16.7 µM (inactive) in the test with SF-539; 12.2 µM (inactive) in the test with CCRF-CEM; 13.3 µM (inactive) with HT-29; 12.8 µM (inactive) in the test on SW-620; 9.73 µM (inactive) in the test with MOLT-4; 11.9 µM (inactive) with UO-31. In addition, the GI50 in the test on M14 is 12.9 µM (inactive).

Regarding `N#C[BH2-][n+]1cn(C2CC(O)C(COP(=O)(O)OC3CC(n4ccc(N)nc4=O)OC3CO)O2)c2nc(N)[nH]c(=O)c21` (stereo unspecified), the GI50 in the test with OVCAR-4, in the test with UACC-257, in the test with SK-MEL-2, in the test with U-251, in the test with IGROV-1 and in the test on OVCAR-3 was > 100 µM (inactive) in each case. In addition, the GI50 in the test with HCC 2998, in the test on HOP-62, with MDA-MB-231, in the test with NCI-H226, in the test on RXF 393 and with NCI-H460 was > 100 µM (inactive) each time. Further, the GI50 in the test with SF-539, in the test with HCT-116, in the test on CCRF-CEM, in the test on HT-29, in the test with MOLT-4 and in the test on UO-31 was > 100 µM (inactive) throughout. The GI50 with M14 was > 100 µM (inactive).

Turning to `O=C1CSC2=NC3=C(COC/C3=C\c3ccc(Br)cc3)C(c3ccc(Br)cc3)N12` (stereo unspecified), the GI50 in the test with OVCAR-4 was > 100 µM (inactive); in the test with UACC-257, > 100 µM (inactive); in the test with SK-MEL-2 it was > 100 µM (inactive); with U-251, 66.5 µM (inactive); in the test on IGROV-1 it was 98.6 µM (inactive); with OVCAR-3 it was 61 µM (inactive). Also, the GI50 in the test with HCC 2998 was > 100 µM (inactive); in the test on HOP-62, > 100 µM (inactive); in the test on MDA-MB-231 it was > 100 µM (inactive); with NCI-H226 it was > 100 µM (inactive); in the test with RXF 393 it was 37.8 µM (inactive); with NCI-H460, 51.2 µM (inactive). Moreover, the GI50 with SF-539 was > 100 µM (inactive); in the test on HCT-116, 40.2 µM (inactive); in the test on CCRF-CEM it was 17.6 µM (inactive); in the test with SW-620, 52.4 µM (inactive); with MOLT-4 it was 15.2 µM (inactive); in the test on UO-31, 35.3 µM (inactive). In addition, in the test on M14, the GI50 is 28.8 µM (inactive).

Consider `CN(C)c1nc(NC23CC4CC(CC(C4)C2)C3)nc(N(C)C)n1`, for which the GI50 in the test on OVCAR-4 is > 100 µM (inactive); in the test on UACC-257, 31.3 µM (inactive); in the test with SK-MEL-2, 20.1 µM (inactive); with U-251, 9.1 µM (inactive); in the test with OVCAR-3, 17.2 µM (inactive); with HCC 2998, > 27.5 µM (inactive). For the same compound, the GI50 with HOP-62 is 15.7 µM (inactive); with MDA-MB-231 it was 9.98 µM (inactive); in the test with NCI-H226, 20.4 µM (inactive); with RXF 393, 3.48 µM (inactive); in the test on NCI-H460, 16.6 µM (inactive); in the test with SF-539, 21.8 µM (inactive). The GI50 with HCT-116 is 20.7 µM (inactive); in the test on CCRF-CEM, 5.06 µM (inactive); with HT-29, 26.6 µM (inactive); in the test with SW-620, 12.3 µM (inactive); in the test on MOLT-4, 10 µM (inactive); with UO-31, 31.4 µM (inactive). Besides, the GI50 in the test on M14 is 13.1 µM (inactive).

The record behind these values is ChEMBL document CHEMBL1201862, “PubChem BioAssay data set” (2004).
